Experimental data published in patent publication US20100003217A1, “Compounds and Pharmaceutical Compositions for the Treatment of Viral Infections” (priority 2008, published 2010).
Where “and” joins values, the source holds several entries; their conditions need not be identical. Identical values can stand only once.

What was measured:
[1] = tested on: monkey primary hepatocytes; assay: Metabolic disposition of [^14C]-Compound 1 and [^14C]-2′-C-methyl guanosine in monkey primary hepatocytes (incubation medium, cellular extracts, nucleotide levels); format: in vitro ADME, Cynomolgus monkey
Summary of the method: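 Rat, monkey or human primary hepatocytes on collagen I plates (1.6 million cells/mL) were incubated at 37° C with 1 or 10 μM C-8 [^14C]-labelled compound or 2′-C-methyl guanosine for 1, 4, 8 and 24 hours. Medium and 70% methanol cell extracts were analysed by LSC and radio-HPLC. Nucleotides were identified by alkaline phosphatase treatment and retention-time matching to standards.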

rat primary hepatocytes = assay: Metabolic disposition of [^14C]-Compound 1 and [^14C]-2′-C-methyl guanosine in rat primary hepatocytes (incubation medium, cellular extracts, nucleotide levels); format: in vitro ADME, Sprague Dawley rat
Summary of the method: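 Radio-HPLC and liquid scintillation counting quantified metabolites in incubation medium and in 70% methanol cell extracts. Samples came from cultured rat, monkey or human primary hepatocytes exposed at 37° C to 1 or 10 μM [^14C]-compound or [^14C]-2′-C-methyl guanosine, sampled at 1–24 hours. Phosphates were confirmed by phosphatase digestion to the nucleoside.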

[2] = monkey hepatocytes (Cy234), 10 μM [^14C]-Compound 1, 4 h
[3] = monkey hepatocytes Cy230, 10 μM [^14C]-2′-C-methyl guanosine, 1 h
[4] = monkey hepatocytes Cy230, 10 μM [^14C]-2′-C-methyl guanosine, 8 h
[5] = monkey hepatocytes Cy230, 10 μM [^14C]-2′-C-methyl guanosine, 24 h
[6] = monkey hepatocytes Cy234, 10 μM [^14C]-2′-C-methyl guanosine, 1 h
[7] = monkey hepatocytes Cy234, 10 μM [^14C]-2′-C-methyl guanosine, 4 h
[8] = monkey hepatocytes Cy234, 10 μM [^14C]-2′-C-methyl guanosine, 8 h
[9] = monkey hepatocytes Cy234, 10 μM [^14C]-2′-C-methyl guanosine, 24 h
[10] = rat hepatocytes (Rs458), 1 μM [^14C]-Compound 1, 1 h
[11] = rat hepatocytes (Rs458), 1 μM [^14C]-Compound 1, 8 h
[12] = rat hepatocytes (Rs458), 1 μM [^14C]-Compound 1, 24 h
[13] = rat hepatocytes Rs448, 10 μM [^14C]-2′-C-methyl guanosine, 1 h
[14] = rat hepatocytes Rs448, 10 μM [^14C]-2′-C-methyl guanosine, 4 h
[15] = rat hepatocytes Rs448, 10 μM [^14C]-2′-C-methyl guanosine, 8 h
[16] = rat hepatocytes Rs448, 10 μM [^14C]-2′-C-methyl guanosine, 24 h
[17] = rat hepatocytes Rs458, 1 μM [^14C]-2′-C-methyl guanosine, 1 h
[18] = rat hepatocytes Rs458, 1 μM [^14C]-2′-C-methyl guanosine, 8 h
[19] = rat hepatocytes Rs458, 1 μM [^14C]-2′-C-methyl guanosine, 24 h
[20] = rat hepatocytes Rs458, 10 μM [^14C]-2′-C-methyl guanosine, 1 h
[21] = rat hepatocytes Rs458, 10 μM [^14C]-2′-C-methyl guanosine, 4 h
[22] = rat hepatocytes Rs458, 10 μM [^14C]-2′-C-methyl guanosine, 8 h
[23] = rat hepatocytes Rs458, 10 μM [^14C]-2′-C-methyl guanosine, 24 h

metabolites observed in cellular extracts (% of total radioactivity) ([1]; monkey hepatocytes (Cy230, Cy234), 10 μM [^14C]-Compound 1, 1 h): 9.25% and 9.65%
metabolites observed in cellular extracts (% of total radioactivity) ([1]; monkey hepatocytes (Cy230, Cy234), 10 μM [^14C]-Compound 1, 8 h): 13.8% and 14.9%
metabolites observed in cellular extracts (% of total radioactivity) ([1]; monkey hepatocytes (Cy230, Cy234), 10 μM [^14C]-Compound 1, 24 h): 18.5% and 16.0%
2′-C-methyl guanosine nucleotide levels in cellular extracts [1, 2]: 44.5 pmol/million cells
metabolites observed in cellular extracts (% of total radioactivity) [1, 2]: 17.1%
2′-C-methyl guanosine nucleotide levels in cellular extracts ([1]; monkey hepatocytes Cy230, 10 μM [^14C]-2′-C-methyl guanosine, 0 h): 0 pmol/million cells
2′-C-methyl guanosine nucleotide levels in cellular extracts [1, 4]: 2.07 pmol/million cells
Major metabolites observed in cellular extracts (% of total radioactivity) [1, 4]: 2.82 % of total radioactivity
2′-C-methyl guanosine nucleotide levels in cellular extracts [1, 5]: 2.16 pmol/million cells
Major metabolites observed in cellular extracts (% of total radioactivity) [1, 5]: 8.41 % of total radioactivity
2′-C-methyl guanosine nucleotide levels in cellular extracts ([1]; monkey hepatocytes Cy230, 10 μM [^14C]-Compound 1, 0 h): 0 pmol/million cells
2′-C-methyl guanosine nucleotide levels in cellular extracts ([1]; monkey hepatocytes Cy230, 10 μM [^14C]-Compound 1, 1 h): 26.3 pmol/million cells
2′-C-methyl guanosine nucleotide levels in cellular extracts ([1]; monkey hepatocytes Cy230, 10 μM [^14C]-Compound 1, 8 h): 153 pmol/million cells
2′-C-methyl guanosine nucleotide levels in cellular extracts ([1]; monkey hepatocytes Cy230, 10 μM [^14C]-Compound 1, 24 h): 88.4 pmol/million cells
2′-C-methyl guanosine nucleotide levels in cellular extracts ([1]; monkey hepatocytes Cy234, 10 μM [^14C]-2′-C-methyl guanosine, 0 h): 0 pmol/million cells
2′-C-methyl guanosine nucleotide levels in cellular extracts [1, 6]: 0.95 pmol/million cells
Major metabolites observed in cellular extracts (% of total radioactivity) [1, 6]: 2.19 % of total radioactivity
2′-C-methyl guanosine nucleotide levels in cellular extracts [1, 7]: 5.30 pmol/million cells
Major metabolites observed in cellular extracts (% of total radioactivity) [1, 7]: 6.51 % of total radioactivity
2′-C-methyl guanosine nucleotide levels in cellular extracts [1, 8]: 7.00 pmol/million cells
Major metabolites observed in cellular extracts (% of total radioactivity) [1, 8]: 7.90 % of total radioactivity
2′-C-methyl guanosine nucleotide levels in cellular extracts [1, 9]: 15.0 pmol/million cells
Major metabolites observed in cellular extracts (% of total radioactivity) [1, 9]: 14.1 % of total radioactivity
2′-C-methyl guanosine nucleotide levels in cellular extracts ([1]; monkey hepatocytes Cy234, 10 μM [^14C]-Compound 1, 0 h): 0 pmol/million cells
2′-C-methyl guanosine nucleotide levels in cellular extracts ([1]; monkey hepatocytes Cy234, 10 μM [^14C]-Compound 1, 1 h): 6.10 pmol/million cells
2′-C-methyl guanosine nucleotide levels in cellular extracts ([1]; monkey hepatocytes Cy234, 10 μM [^14C]-Compound 1, 8 h): 91.0 pmol/million cells
2′-C-methyl guanosine nucleotide levels in cellular extracts ([1]; monkey hepatocytes Cy234, 10 μM [^14C]-Compound 1, 24 h): 111 pmol/million cells
metabolites observed in cellular extracts (% of total radioactivity) (rat primary hepatocytes; rat hepatocytes (Rs448, Rs458), 10 μM [^14C]-Compound 1, 1 h, listed as Compd 6): 11.4% and 12.3%
metabolites observed in cellular extracts (% of total radioactivity) (rat primary hepatocytes; rat hepatocytes (Rs448, Rs458), 10 μM [^14C]-Compound 1, 4 h, listed as Compd 6): 13.4% and 16.7%
metabolites observed in cellular extracts (% of total radioactivity) (rat primary hepatocytes; rat hepatocytes (Rs448, Rs458), 10 μM [^14C]-Compound 1, 8 h, listed as Compd 6): 12.7% and 16.8%
metabolites observed in cellular extracts (% of total radioactivity) (rat primary hepatocytes; rat hepatocytes (Rs448, Rs458), 10 μM [^14C]-Compound 1, 24 h, listed as Compd 6): 15.2% and 14.6%
2′-C-methyl guanosine nucleotide levels in cellular extracts (rat primary hepatocytes; [10]): 20.0 pmol/million cells
metabolites observed in cellular extracts (% of total radioactivity) (rat primary hepatocytes; [10]): 13.0%
2′-C-methyl guanosine nucleotide levels in cellular extracts (rat primary hepatocytes; [11]): 41.2 pmol/million cells
metabolites observed in cellular extracts (% of total radioactivity) (rat primary hepatocytes; [11]): 13.27%
2′-C-methyl guanosine nucleotide levels in cellular extracts (rat primary hepatocytes; [12]): 30.0 pmol/million cells
metabolites observed in cellular extracts (% of total radioactivity) (rat primary hepatocytes; [12]): 18.1%
2′-C-methyl guanosine nucleotide levels in cellular extracts (rat primary hepatocytes; rat hepatocytes Rs448, 10 μM [^14C]-2′-C-methyl guanosine, 0 h): 0 pmol/million cells
2′-C-methyl guanosine nucleotide levels in cellular extracts (rat primary hepatocytes; [13]): 7.00 pmol/million cells
Major metabolites observed in cellular extracts (% of total radioactivity) (rat primary hepatocytes; [13]): 1.24 % of total radioactivity
2′-C-methyl guanosine nucleotide levels in cellular extracts (rat primary hepatocytes; [14]): 28.0 pmol/million cells
Major metabolites observed in cellular extracts (% of total radioactivity) (rat primary hepatocytes; [14]): 3.54 % of total radioactivity
2′-C-methyl guanosine nucleotide levels in cellular extracts (rat primary hepatocytes; [15]): 47.0 pmol/million cells
Major metabolites observed in cellular extracts (% of total radioactivity) (rat primary hepatocytes; [15]): 4.76 % of total radioactivity
2′-C-methyl guanosine nucleotide levels in cellular extracts (rat primary hepatocytes; [16]): 101 pmol/million cells
Major metabolites observed in cellular extracts (% of total radioactivity) (rat primary hepatocytes; [16]): 10.4 % of total radioactivity
2′-C-methyl guanosine nucleotide levels in cellular extracts (rat primary hepatocytes; rat hepatocytes Rs448, 10 μM [^14C]-Compound 1, 0 h): 0 pmol/million cells
2′-C-methyl guanosine nucleotide levels in cellular extracts (rat primary hepatocytes; rat hepatocytes Rs448, 10 μM [^14C]-Compound 1, 1 h): 112 pmol/million cells
2′-C-methyl guanosine nucleotide levels in cellular extracts (rat primary hepatocytes; rat hepatocytes Rs448, 10 μM [^14C]-Compound 1, 4 h): 269 pmol/million cells
2′-C-methyl guanosine nucleotide levels in cellular extracts (rat primary hepatocytes; rat hepatocytes Rs448, 10 μM [^14C]-Compound 1, 8 h): 311 pmol/million cells
2′-C-methyl guanosine nucleotide levels in cellular extracts (rat primary hepatocytes; rat hepatocytes Rs448, 10 μM [^14C]-Compound 1, 24 h): 215 pmol/million cells
2′-C-methyl guanosine nucleotide levels in cellular extracts (rat primary hepatocytes; [17]): 0.85 pmol/million cells
Major metabolites observed in cellular extracts (% of total radioactivity) (rat primary hepatocytes; [17]): 1.50 % of total radioactivity
2′-C-methyl guanosine nucleotide levels in cellular extracts (rat primary hepatocytes; [18]): 4.00 pmol/million cells
Major metabolites observed in cellular extracts (% of total radioactivity) (rat primary hepatocytes; [18]): 5.14 % of total radioactivity
2′-C-methyl guanosine nucleotide levels in cellular extracts (rat primary hepatocytes; [19]): 8.00 pmol/million cells
Major metabolites observed in cellular extracts (% of total radioactivity) (rat primary hepatocytes; [19]): 9.88 % of total radioactivity
2′-C-methyl guanosine nucleotide levels in cellular extracts (rat primary hepatocytes; rat hepatocytes Rs458, 10 μM [^14C]-2′-C-methyl guanosine, 0 h): 0 pmol/million cells
2′-C-methyl guanosine nucleotide levels in cellular extracts (rat primary hepatocytes; [20]): 5.60 pmol/million cells
Major metabolites observed in cellular extracts (% of total radioactivity) (rat primary hepatocytes; [20]): 1.08 % of total radioactivity
2′-C-methyl guanosine nucleotide levels in cellular extracts (rat primary hepatocytes; [21]): 28.0 pmol/million cells
Major metabolites observed in cellular extracts (% of total radioactivity) (rat primary hepatocytes; [21]): 4.01 % of total radioactivity
2′-C-methyl guanosine nucleotide levels in cellular extracts (rat primary hepatocytes; [22]): 48.0 pmol/million cells
Major metabolites observed in cellular extracts (% of total radioactivity) (rat primary hepatocytes; [22]): 5.42 % of total radioactivity
2′-C-methyl guanosine nucleotide levels in cellular extracts (rat primary hepatocytes; [23]): 91.0 pmol/million cells
Major metabolites observed in cellular extracts (% of total radioactivity) (rat primary hepatocytes; [23]): 9.65 % of total radioactivity
2′-C-methyl guanosine nucleotide levels in cellular extracts (rat primary hepatocytes; rat hepatocytes Rs458, 10 μM [^14C]-Compound 1, 0 h): 0 pmol/million cells
2′-C-methyl guanosine nucleotide levels in cellular extracts (rat primary hepatocytes; rat hepatocytes Rs458, 10 μM [^14C]-Compound 1, 1 h): 129 pmol/million cells
2′-C-methyl guanosine nucleotide levels in cellular extracts (rat primary hepatocytes; rat hepatocytes Rs458, 10 μM [^14C]-Compound 1, 4 h): 326 pmol/million cells
2′-C-methyl guanosine nucleotide levels in cellular extracts (rat primary hepatocytes; rat hepatocytes Rs458, 10 μM [^14C]-Compound 1, 8 h): 375 pmol/million cells
2′-C-methyl guanosine nucleotide levels in cellular extracts (rat primary hepatocytes; rat hepatocytes Rs458, 10 μM [^14C]-Compound 1, 24 h): 207 pmol/million cells
Structure (SMILES): C[C@@]1(O)[C@H](O)[C@@H](COP(=O)(O)OP(=O)(O)O)O[C@H]1n1cnc2c(=O)[nH]c(N)nc21 [Compound 6, [(2R)-2-methyl-β-D-ribofuranosyl]guanine 5′-diphosphate]
2′-C-methyl guanosine nucleotide levels in cellular extracts [1, 3]: BLD (BLD = below limit of detection (0.02 pmol/million cells))
Major metabolites observed in cellular extracts (% of total radioactivity) [1, 3]: BLD (BLD = below limit of detection (30 DPM))
2′-C-methyl guanosine nucleotide levels in cellular extracts (rat primary hepatocytes; rat hepatocytes (Rs458), 1 μM [^14C]-Compound 1, 0 h): BLD (BLD = below limit of detection (0.02 pmol/million cells))
2′-C-methyl guanosine nucleotide levels in cellular extracts (rat primary hepatocytes; rat hepatocytes Rs458, 1 μM [^14C]-2′-C-methyl guanosine, 0 h): BLD (BLD = below limit of detection (0.02 pmol/million cells))
